C=C1CCC[C@]2(C)C[C@]3(O)OC(=O)C(C)=C3C[C@@H]12
solubility (mole fraction)
Settings	283.2 K	288.2 K	293.2 K	298.2 K	303.2 K	308.2 K	313.2 K	318.2 K	323.2 K
in diethyl ether	0.00277	0.00375	0.00562	0.00738	0.00939	–	–	–	–
in ethanol	0.00443	0.00547	0.00673	0.00809	0.00966	0.0113	0.0131	0.0151	0.0171
in ethyl acetate	0.0224	0.0228	0.0236	0.0242	0.0252	0.0261	0.0271	0.0282	0.0293
in n-hexane	2.44e-05	4.12e-05	6.39e-05	8.32e-05	0.000113	0.000153	0.000202	0.000272	0.000336

— BigSolDB 2.1
